Starred links: 1 amine or outer side, 2 acyl side, 3 side chain; linkers in the order of their positions; H or OH if unused. Non-standard residues stand in square brackets, D forms with d. No end group written: not given here. Hydrazinoacetyl = O=C(CNN[*:1])[*:2]

The data set has as its system molécules de classe II du CMH. The data set is described as follows: Quantification of surface expression of MHC class II molecules by flow cytometry (anti-HLA DR-FITC) after 24 h stimulation of cells with peptides or lipopeptides. The data set is classed as cell-based, humaine. As to conditions: for Moyenne: mean fluorescence of treated COLO 205 cells; for Rapport: ratio of mean fluorescence of treated to untreated COLO 205 cells. The procedure: Les cellules COLO 205 (lignée cellulaire humaine issue d'un carcinome de colon) proviennent de la banque de cellules ATCC (American Type Culture Collection). Elles sont cultivées en milieu RPMI 1640 (Gibco BRL, Courbevoie, France) avec 10% de sérum de veau foetal (SVF) et 5 mM de pyruvate de sodium, et incubées à 37°C en présence de 5% de CO2. Les cellules sont stimulées pendant 24 heures avec différentes concentrations (35, 50 ou 65 µM) de peptides ou de lipopeptides. Les cellules sont ensuite marquées pendant 1 heure à 4°C avec 10 µl d'anticorps de souris anti-HLA DR de classe-II, couplé à la FITC (clone TAL, 1B5, Cymbus Biotechnology Ltd, Hants, Grande-Bretagne) dans 10% de SVF/PBS, puis lavées 3 fois par du SVF/PBS.
L'expression de surface des molécules de classe II du CMH est analysée par cytométrie de flux sur un cytomètre Coulter EPICS II, à raison de 10 000 évènements par échantillon. L'intensité de fluorescence observée est directement proportionnelle à la quantité de molécules de classe II du CMH présente à la surface des cellules. La moyenne de fluorescence observée pour les cellules non traitées et pour les cellules traitées (colonne « Moyenne» dans le tableau II) permet de calculer un rapport entre la moyenne de fluorescence des cellules traitées et la moyenne de fluorescence des cellules non traitées (colonne « Rapport » dans le tableau II).
Background: A flow cytometer gives signals particle by particle.

For the substance “H2N-NH-CH2CO-PSRENQNAVKIQKLSVVLRREQKHRVERLAFRNQSLPF-NH2 ([Hydrazinoacetyl]PSRENQNAVKIQKLSVVLRREQKHRVERLAFRNQSLPF-NH2; N-terminus assumed; SMILES CC[C@H](C)[C@H](NC(=O)[C@H](CCCCN)NC(=O)[C@@H](NC(=O)[C@H](C)NC(=O)[C@H](CC(N)=O)NC(=O)[C@H](CCC(N)=O)NC(=O)[C@H](CC(N)=O)NC(=O)[C@H](CCC(=O)O)NC(=O)[C@H](CCCNC(=N)N)NC(=O)[C@H](CO)NC(=O)[C@@H]1CCCN1C(=O)CNN)C(C)C)C(=O)N[C@@H](CCC(N)=O)C(=O)N[C@@H](CCCCN)C(=O)N[C@@H](CC(C)C)C(=O)N[C@@H](CO)C(=O)N[C@H](C(=O)N[C@H](C(=O)N[C@@H](CC(C)C)C(=O)N[C@@H](CCCNC(=N)N)C(=O)N[C@@H](CCCNC(=N)N)C(=O)N[C@@H](CCC(=O)O)C(=O)N[C@@H](CCC(N)=O)C(=O)N[C@@H](CCCCN)C(=O)N[C@@H](Cc1c[nH]cn1)C(=O)N[C@@H](CCCNC(=N)N)C(=O)N[C@H](C(=O)N[C@@H](CCC(=O)O)C(=O)N[C@@H](CCCNC(=N)N)C(=O)N[C@@H](CC(C)C)C(=O)N[C@@H](C)C(=O)N[C@@H](Cc1ccccc1)C(=O)N[C@@H](CCCNC(=N)N)C(=O)N[C@@H](CC(N)=O)C(=O)N[C@@H](CCC(N)=O)C(=O)N[C@@H](CO)C(=O)N[C@@H](CC(C)C)C(=O)N1CCC[C@H]1C(=O)N[C@@H](Cc1ccccc1)C(N)=O)C(C)C)C(C)C)C(C)C) [peptide 22Sc]”, the Moyenne is listed as 1,36 (35 µM), 1,60 (50 µM) and 1,67 (65 µM). Further, the Rapport by setting is: (35 µM) 1,8; (50 µM) 2,18; (65 µM) 2,27.

“palm-NH-NH-CH2CO-PSRENQNAVKIQKLSVVLRREQKHR-VERLAFRNQSLPF-NH2 [peptide 23Sc]”: the Moyenne (35 µM) was 4,72, the Moyenne (50 µM) was 4,51 and the Moyenne (65 µM) is listed as 5,55. In addition, the Rapport is on record as 9,16 (35 µM), 6,15 (50 µM) and 7,5 (65 µM).

These data come from patent publication EP1206482B1, “METHOD FOR COUPLING, IN SOLUTION, A PEPTIDE WITH AT LEAST ANOTHER COMPOUND AND USES THEREOF” (INSTITUT PASTEUR DE LILLE, priority 1999, dated 2001).
